Source: patent US7262171B1, “Use of rhamnolipids in wound healing, treating burn shock, atherosclerosis, organ transplants, depression, schizophrenia and cosmetics” (Paradigm Biomedical, Inc., priority 1998, dated 2007)
Where a name gives a salt, the structure may show the parent alone.

How the values were obtained:
venous ulcer = assay: Open wound healing in a patient with incurable venous ulcer; format: in vivo, human; settings: 1% BAC-3 ointment, twice daily during 41 days
Experimental: The BAC-3 rhamnolipid was tested in the case of open wound healing, in a patient suffering around ten years from incurable venous ulcer. On the left leg, the patient had very thick layers of collagen with fibrotic lesions. […] Moreover, after treatment was finished, not only the collagen, but also the fibrotic lesions had disappeared as well. One year after the treatment, the treated skin lesions on the left leg appear normal, and all skin collagen and fibrotic layers had disappeared.

burn wounds [1] = assay: Topical treatment of burn wounds, 15% of body surface; format: in vivo, Sprague-Dawley rats; settings: 1% BAC-3 in ointment without chlorhexidine, started on 50th day after burning on open wounds; tapering regimen
Experimental: Method of burning. […] (Producer: Veterinary Laboratory Inc. Lenexa, Kans.).
Four rats were burned according to the described procedure using the wider opening in the Walker device (10×5 cm). All rats were treated from the beginning by placebo. After 50 days all burned rats had open wounds in average 2.3 cm at the neck, 1.3 cm in the middle and 1.8 cm at the tail.
On the 50th day after burning, animals were treated with 1% BAC-3 in ointment without chlorhexidine hydrochloride using the following procedure:
For the first 3 days, burn wounds were treated twice daily. After developing granulation tissue and the first sign of epithelization, animals were treated 3 days with 1% BAC-3 in ointment once daily. For the next four days, animals were treated every second day. After that wounds were treated every third day with 1% BAC-3 in ointment until the entire wound was re-epithelized. Re-epithelization was first completed at the middle of the wounds, then at the tails and finally at the necks. Whole epithelization in all animals was finished in 30 days.

incision wounds = assay: Tensile strength of incision wounds; format: in vivo, Sprague-Dawley rats; settings: 0.1% BAC-3, 21 days after wounding, p<0.05 by ANOVA; FIG. 3
Source text: Incision wounds. Dorsal midline incisions were made in anesthetized rats. The animals were clipped free of their fur and prepared with alcohol. A 5.0 cm, midline, full-thickness incision was made with a scalpel through the panniclus carnosus.
The wounds were immediately closed with skin sutures spaced at a distance of 0.5 cm. Seven days later, all sutures were removed. On days 14 and 21 after incision, three animals from each group were killed using an overdose of sodium pentobarbital. Using a plexiglass template, a minimum of two samples of full-thickness skin were harvested perpendicular to the long axis of the wound for tensile strength determination. The skin samples were 9.0 mm wide at the wound by 2.0 cm long.
Tensile Strength Determination. The standard wound samples for each treatment cohort were examined for tensile strength by pulling the individual wounds apart in an Instron 4201 (Universal Testing instruments, Instron Engineering Co., Canton, Mass.) material tester. Special clamps were used to securely grip the tissue to avoid slippage as the wounds were pulled at a standard cross speed of 25 mm/min. The tensile strength of healthy skin was measured in killed animals from each group.
Effect of BAC-3 on Tensile Strength of Incision Wounds (FIG. 3) with and without chlorhexidine hydrochloride. The tensile strength of incision wounds was measured 21 days after wounding. […]

burn wounds [2] = assay: Topical treatment of burn wounds, 7% of body surface; settings: for mean value of collagen tissue: sacrificed on 45th day, histopathology; for mean value of collagen concentration relative to group 1 D (placebo): placebo taken as 1100% (printed)
mice = settings: cited from earlier work; for PCP-induced enhancement of immobility in the forced swimming test: doses that failed to produce antidepressant effects in control animals
WKY rats [3] = settings: cited from earlier work
WKY rats [4] = settings: cited from earlier work; remark: listed apart in the source

For CCCCCCCC(CC(=O)O)OC(=O)CC(CCCCCCC)OC1OC(C)C(O)C(O)C1OC1OC(C)C(O)C(O)C1O [BAC-3, (α-L-rhamnopyranosyl-(1,2)-α-L-rhamnopyranosyl)-3-hyroxydecanoyl-3-hydroxydecanoic acid], the “collagen and fibrotic lesions after treatment was finished” value (venous ulcer) was “disappeared”, the “treated skin lesions one year after the treatment” value (venous ulcer; one year after) was “appear normal” and the “patient's condition” value (venous ulcer; venous ulcer, left leg) was “significantly improved”. The “time to whole epithelization in all animals” value (burn wounds [1]) was 30 days, the “tensile strength of incision wounds vs corresponding vehicle” value (incision wounds) was “significantly lower” and the “rate of burn wound closure (decrease in wound size) vs vehicle alone” value (burn wounds [2]; 0.1% BAC-3 in eucerin, without chlorhexidine, twice daily, days 14-45, FIG. 1) was “significantly faster”. The “extent of burn wound closure (wound size) vs vehicle alone” value (burn wounds [2]; 0.1% BAC-3 in eucerin, without chlorhexidine, days 14, 21 and 28, p<0.05 by ANOVA, FIG. 2) was “significantly smaller”, the “body weights among the treatment groups” value (burn wounds [2]; 1% and 0.1% BAC-3 in eucerin vs vehicle, twice daily, 45 days) was “no significant differences” and the crust formation (burn wounds [2]; between all groups (1% and 0.1% BAC-3, with or without chlorhexidine, placebo), 45 days) was “no significant differences”. For the same compound, the granulation tissue (burn wounds [2]; group 1-A: 1% BAC-3 in ointment twice daily) was “prominently developed”, the “hair growth of dead skin during the healing period” value (burn wounds [2]; group 1-A: 1% BAC-3 in ointment, compared to the other groups) was “very prominent” and the “re-epithelization in the middle part of the burn wounds” value (burn wounds [2]; group 1-B: 0.1% BAC-3 in ointment twice daily) was “faster”. For the same compound, the “mean value of collagen tissue” value (burn wounds [2]; group 1 A: 1% BAC-3, without chlorhexidine) was 8.48 mm^2, the “mean value of collagen concentration relative to group 1 D (placebo)” value (burn wounds [2]; group 1 A: 1% BAC-3) was 131.26 and the “mean value of collagen tissue” value (burn wounds [2]; group 1 B: 0.1% BAC-3, without chlorhexidine) was 5.15 mm^2. For the same compound, the “mean value of collagen concentration relative to group 1 D (placebo)” value (burn wounds [2]; group 1 B: 0.1% BAC-3) was 79.72, the granulation tissue (burn wounds [2]; group 2-A: 1% BAC-3 in ointment plus 1% chlorhexidine hydrochloride twice daily) was “prominently developed” and the “re-epithelization in the middle part of the burn wounds” value (burn wounds [2]; group 2-B: 0.1% BAC-3 in ointment plus 1% chlorhexidine hydrochloride twice daily) was “faster”.
For c1ccc(C2(N3CCCCC3)CCCCC2)cc1 [PCP, phencyclidine], the forced swimming-induced immobility (mice; mice treated repeatedly with PCP (10 mg/kg per day S.C.), same stress again) is given as “enhanced” and the “persistence of the enhancing effect on immobility after withdrawal of the drug” value (mice; mice, PCP 10 mg/kg per day S.C.) is given as “at least 21 days”.
In the case of [H]/N=C(\N/C(=N/[H])NCCCCCCNC(=N)NC(=N)Nc1ccc(Cl)cc1)Nc1ccc(Cl)cc1 [chlorhexidine hydrochloride, reference compound], the wound irritation (burn wounds [2]; 1% chlorhexidine hydrochloride in combination with BAC-3, rats scratched lower and upper part of burn wounds) is reported as “irritated wounds”.
In the case of CNCCCN1c2ccccc2CCc2ccccc21 [desipramine], the “immobility in the forced swim test” value (WKY rats [3]) is listed as “reduces immobility” and the “incidence of stress ulcer” value (WKY rats [4]) is listed as “reduces the incidence of stress ulcer”.
For Cc1nc2n(c(=O)c1CCN1CCC(c3noc4cc(F)ccc34)CC1)CCCC2 [risperidone], the “PCP-induced enhancement of immobility in the forced swimming test” value (mice; mice) is listed as “attenuated”.
In the case of Cc1nc2sccn2c(=O)c1CCN1CCC(=C(c2ccc(F)cc2)c2ccc(F)cc2)CC1 [ritanserin], the “PCP-induced enhancement of immobility in the forced swimming test” value (mice; mice) is given as “attenuated”.
